Assay results reported in PubChem BioAssay AID214 (DTP/NCI, 2004).
Values joined by “and” are separate entries in the source; they are usually repeats but may differ in a detail not shown here. Equal values may be shown once. Results filed as inconclusive are left out.

System: B6C3F1 mice, colon carcinoma 38 s.c., T/C
Assay: NCI In Vivo Anticancer Drug Screen. Data for tumor model Colon Carcinoma 38 (subcutaneous) in B6C3F1 mice
Settings: endpoint: median tumor weight (est.), schedule: Q07DX002 (ip), higher = larger tumour
Procedure: The antitumor activity of compounds was measured in mice bearing transplantable tumors. Survival or tumor size were measured and the results are expressed as the measurement made in the treated group (T) divided by the measurement made in the vehicle treated control group (C). The tumor model used in this assay is Colon Carcinoma 38 (subcutaneous) in B6C3F1 mice

[1] = dose: 100.0 mg/kg/injection, vehicle: Klucel (hydroxypropylcellulose) (HPC)
[2] = dose: 50.0 mg/kg/injection, vehicle: suspension in saline
[3] = dose: 100.0 mg/kg/injection, vehicle: suspension in saline
[4] = dose: 50.0 mg/kg/injection, vehicle: saline
[5] = dose: 100.0 mg/kg/injection, vehicle: saline

O=C(O)CC(=O)O.[NH-]CC[NH-].[Pt+2]
T/C (dose: 28.13 mg/kg/injection, vehicle: dextrose): 59 % of control
T/C (dose: 56.25 mg/kg/injection, vehicle: dextrose): 81 % of control

O=C(O)Cc1cccc2c(=O)c(-c3ccccc3)c(-c3ccccc3)oc12
T/C [1]: 11 % of control

Cc1c2cc[n+](CCN3CCCCC3)cc2c(C)c2c1[nH]c1ccc(O)cc12
T/C (dose: 6.25 mg/kg/injection, vehicle: suspension in saline): 83 % of control
T/C (dose: 12.5 mg/kg/injection, vehicle: suspension in saline): 71 % of control
T/C (dose: 25.0 mg/kg/injection, vehicle: suspension in saline): 62 % of control
T/C [2]: 53 % of control
T/C [3]: 34 % of control

CCn1cnc2c(=S)nc[nH]c21
T/C [4]: 85 % of control
T/C [2]: 92 % of control
T/C [5]: 73 % of control
T/C [3]: 58 % of control
T/C (dose: 200.0 mg/kg/injection, vehicle: saline): 55 % of control
T/C (dose: 200.0 mg/kg/injection, vehicle: suspension in saline): 16 % of control
T/C (dose: 400.0 mg/kg/injection, vehicle: saline): 1 % of control

Cn1cc(C2NC(=O)c3ccccc3N2)c2ccccc21 (centres undefined)
T/C (dose: 50.0 mg/kg/injection, vehicle: Klucel (hydroxypropylcellulose) (HPC)): 46 % of control
T/C [1]: 244 % of control
T/C (dose: 200.0 mg/kg/injection, vehicle: Klucel (hydroxypropylcellulose) (HPC)): 42 % of control and 63 % of control
T/C (dose: 400.0 mg/kg/injection, vehicle: Klucel (hydroxypropylcellulose) (HPC)): 151 % of control
T/C (dose: 1600.0 mg/kg/injection, vehicle: Klucel (hydroxypropylcellulose) (HPC)): 96 % of control

Nc1n[nH]c2ccccc12
T/C (dose: 50.0 mg/kg/injection, vehicle: acid diluted with saline): 105 % of control
T/C (dose: 100.0 mg/kg/injection, vehicle: acid diluted with saline): 112 % of control
T/C (dose: 200.0 mg/kg/injection, vehicle: acid diluted with saline): 84 % of control
T/C (dose: 400.0 mg/kg/injection, vehicle: acid diluted with saline): 59 % of control
T/C (dose: 800.0 mg/kg/injection, vehicle: acid diluted with saline): 74 % of control

COc1ccc(OC)c(Cc2cnc3nc(N)nc(N)c3c2C)c1
T/C (dose: 25.0 mg/kg/injection, vehicle: water): 72 % of control
T/C (dose: 50.0 mg/kg/injection, vehicle: water): 104 % of control

C(=N/NC1=NCCN1)/c1c2ccccc2c(/C=N\NC2=NCCN2)c2ccccc12
T/C (dose: 6.25 mg/kg/injection, vehicle: saline): 100 % of control
T/C (dose: 12.5 mg/kg/injection, vehicle: saline): 55 % of control
T/C (dose: 25.0 mg/kg/injection, vehicle: saline): 112 % of control
T/C [4]: 81 % of control
T/C [5]: 36 % of control

COc1ccccc1CC(=O)O
T/C (dose: 75.0 mg/kg/injection, vehicle: saline with Tween-80): 78 % of control
T/C (dose: 150.0 mg/kg/injection, vehicle: saline with Tween-80): 107 % of control
T/C (dose: 300.0 mg/kg/injection, vehicle: saline with Tween-80): 98 % of control

COc1cc(C)c(C2NC(=O)c3ccccc3N2)cc1C (centres undefined)
T/C (dose: 450.0 mg/kg/injection, vehicle: Klucel (hydroxypropylcellulose) (HPC)): 70 % of control
T/C (dose: 900.0 mg/kg/injection, vehicle: Klucel (hydroxypropylcellulose) (HPC)): 53 % of control
T/C (dose: 1800.0 mg/kg/injection, vehicle: Klucel (hydroxypropylcellulose) (HPC)): 115 % of control
T/C (dose: 3600.0 mg/kg/injection, vehicle: Klucel (hydroxypropylcellulose) (HPC)): 55 % of control
